{"source": "patent US8182793B2", "about": "“Sunless tanning products and processes” (Concept Laboratories, priority 2004, dated 2012)", "key": {"skin [1]": {"test_system": "skin", "conditions": "earlier studies of the applicant in prior filings Ser. No. 10/382,868 & 10/694,972; cited from earlier work"}, "[2]": {"conditions": "moisture loss figure, Purac citation (Osipow); cited from earlier work"}, "[3]": {"assay": "Water activity (aw) measured with Aqualab 3TE instrument", "format": "physicochemical", "conditions": "for Reduction of water activity compared with other screened materials (in words): additive screening, aqueous solutions", "description": "There is no device that can be put into a product to directly measure the water activity. However, the water activity of a product can be determined, indirectly, from the relative humidity of the air surrounding the sample when the air and the sample are at equilibrium. Therefore, the sample must be in an enclosed space where this equilibrium can take place. Once this occurs, the water activity of the sample and the relative humidity of the air are equal. The measurement taken at equilibrium is called an equilibrium relative humidity or ERH.\nIn practice, water activity can be determined by use of the Aqualab© (Decagon, Inc., Pullman, Wash.) or HygroLab© (Rotronic, Inc., Huntington, N.Y.). For all of the experimental water activity data recorded and detailed in this application, an Aqualab 3T-E instrument with an accuracy of +/−0.003 units and with automatic temperature equilibration (23.7+/−0.2° C.) capability was utilized.\nIn the AquaLab instrument, a sample is equilibrated within the headspace of a sealed chamber containing a mirror, an optical sensor, an internal fan, and an infrared temperature sensor. At equilibrium, the relative humidity of the air in the chamber is the same as the water activity of the sample. A thermoelectric (Peltier) cooler precisely controls the mirror temperature. An optical reflectance sensor detects the exact point at which condensation first appears. A beam of infrared light is directed onto the mirror and reflected back to a photodetector which detects the change in reflectance when condensation occurs on the mirror. A thermocouple attached to the mirror accurately measures the dew-point temperature. The internal fan is for air circulation, which reduces vapor equilibrium time and controls the boundary layer conductance of the mirror surface. Additionally, a thermopile sensor (infrared thermometer) measures the sample surface temperature. Both the dew point and sample temperatures are then used to determine the water activity. During a water activity measurement, the AquaLab repeatedly determines the dew-point temperature until vapor equilibrium is reached. Since the measurement is based on temperature determination, calibration is not necessary, but measuring a standard salt solution checks proper functioning of the instrument. If there is a problem, the mirror is easily accessible and can be cleaned in a few minutes.\nSunless tanning formulations typically contain 3-10% by weight of DHA as the primary tanning agent dissolved in water. DHA is a water soluble sugar, and, as with other sugars or solutes will decrease the water activity as compared to pure water (aw=1.00). Solutes dilute the water, increasing its entropy and therefore lowering its energy state. These two effects combine to lower the total free energy of the water.\nAn arbitrary upper limit of 0.900 for aqueous solutions of additives was set for the screening studies. In other words, any cosmetic or pharmaceutical additive investigated must lower the aw of water from 1.000 to 0.900 or below when tested at a concentration that was judged to be the upper practical limit for inclusion based on safety and general cosmetic acceptability."}, "stratum corneum": {"test_system": "stratum corneum", "assay": "In vivo water binding capacity, Nova Dermal Phase Meter (conductance)", "conditions": "added to aqueous solutions of DHA", "protocol": "In addition to the water activity screening and the tanning experiments conducted with simple aqueous solutions of DHA, sodium lactate, and glycols, objective instrumental testing for in vivo water binding capacity of these DHA-sodium lactate-glycol solutions was conducted.\nThe Nova Meter measures water content of the top layers of the skin indirectly via conductance measurements."}, "skin [4]": {"test_system": "skin", "assay": "Tanning response on forearm skin, visual assessment of color development on a 1-6 point scale", "format": "in vivo, human", "protocol": "Simple aqueous formulations of dihydroxyacetone and sodium lactate were first evaluated for tanning response on skin. The formulations evaluated and the tanning responses obtained are shown in Tables 3 (formulations) and Table 4 (tanning response of Table 3 formulas).\n(§1) An equal amount of each formula (approximately 150 mg.) from Table 3 was applied to 2″×2″ adjacent sections of forearm, allowed to dry and covered with clothing for the duration of the testing. The application areas were visibly the same color prior to treatment with the solutions and this was confirmed via calorimeter readings. Visual assessment of color development was made 24 hours post application using a 1-6 point scale with 1 signifying no color development versus non-treated skin, 3 signifying moderate color development and 6 signifying intensely dark color development. A commercial sunless tanning solution containing 10% DHA was used as a positive control.\nas §1, with “As before, an equal” for “An equal”, “Table 5” for “Table 3”, “via colorimeter” for “via calorimeter”, “24 hours and at 48” for “24”, “development.” for “development. A commercial sunless tanning solution containing 10% DHA was used as a positive control.”\nA control formula containing 10% DHA, 5% butylene glycol and 5% methylsulfonylmethane was used as a positive control. Past studies as outlined in applicants' co-pending application Ser. No. 10/382,868 titled SUNLESS TANNING PRODUCTS AND PROCESSES, filed on Mar."}}, "note": "Read-outs that look alike come from different tables or passages of the source.", "data": [{"smiles": "OCC(O)CO", "note": "[glycerol, reference compound]", "values": [{"measurement": "Effect on the tanning response of DHA", "setting": "skin [1]", "result": "somewhat of an inhibitory effect on the tanning response of DHA"}, {"measurement": "Water-holding capacity", "setting": "[2]", "result": "equal water-holding capacity"}, {"measurement": "Lowering of water activity compared with other glycols (in words)", "setting": "[3]; 10% in 10% DHA solution, Table 1", "result": "lower the water activity to a greater extent than the other glycols evaluated"}]}, {"smiles": "O=C1CCC(C(=O)[O-])N1.[Na+]", "note": "(stereo not drawn) [Sodium PCA, sodium pyrrolidone carboxylic acid]", "values": [{"measurement": "Reduction of water activity compared with other screened materials (in words)", "setting": "[3]", "result": "capable of reducing the water activity to a greater extent than any other material screened"}]}, {"smiles": "CC(O)C(=O)[O-].[Na+]", "note": "(stereo not drawn) [Sodium Lactate, sodium lactate]", "values": [{"measurement": "Water holding capacity of the stratum corneum (moisturizing effect)", "setting": "stratum corneum", "result": "improve the water holding capacity of the stratum corneum"}, {"measurement": "Effect on the tanning response of DHA", "setting": "skin [4]; added to 5% DHA solutions", "result": "enhancement of the tanning response was recorded"}, {"measurement": "Effect on the tanning response of DHA", "setting": "skin [4]; use concentrations of 0.5-5.0%", "result": "Enhance the tanning response of DHA"}, {"measurement": "Water-holding capacity", "setting": "[2]", "result": "double the capacity of glycerin"}, {"measurement": "Water Activity (aw)", "setting": "[3]; Sodium Lactate 6.0 % w/w", "result": 0.991}, {"measurement": "Water Activity (aw)", "setting": "[3]; Sodium Lactate 12.0 % w/w", "result": 0.944}, {"measurement": "Water Activity (aw)", "setting": "[3]; Sodium Lactate 18.0 % w/w", "result": 0.913}, {"measurement": "Water Activity (aw)", "setting": "[3]; Sodium Lactate 24.0 % w/w", "result": 0.880}, {"measurement": "Water Activity (aw)", "setting": "[3]; Sodium Lactate 30.0 % w/w", "result": 0.840}, {"measurement": "Reduction of water activity compared with other screened materials (in words)", "setting": "[3]", "result": "capable of reducing the water activity to a greater extent than any other material screened"}, {"measurement": "Water activity (Aw)", "setting": "[3]; aqueous solutions at concentrations of 25% w/w or less", "result": "below 0.900"}, {"measurement": "Concentration meeting the screening criterion of reduction of aw to 0.900 or less", "setting": "[3]; read from Table 2", "result": "18-24%"}]}, {"smiles": "CC(O)C(=O)O", "note": "(stereo not drawn) [lactic acid]", "values": [{"measurement": "Effect on the tanning response of DHA", "setting": "skin [4]; added to 5% DHA solutions", "result": "enhancement of the tanning response was recorded"}, {"measurement": "Water-holding capacity", "setting": "[2]", "result": "equal water-holding capacity"}]}]}
